Earlier results in paper PMC10673369, “Preliminary SAR of Novel Pleuromutilin–Polyamine Conjugates” (Microorganisms, 2023).

How the values were obtained:
Design in all cases: method as in PMID 22191527, PMID 27742734, PMID 23836172, PMID 30019769
[1] = tested on: aerobic Gram-positive bacteria; settings: incl. MRSA, VISA, hVISA, VRSA, PRSP, multidrug-resistant S. pneumoniae, VRE; cited from earlier work
[2] = tested on: non-fastidious Gram-negative bacteria; settings: cited from earlier work
[3] = tested on: fastidious Gram-negative bacteria, including Haemophilus influenza and Moraxella catarrhalis; settings: incl. Haemophilus influenza and Moraxella catarrhalis; cited from earlier work

C=C[C@]1(C)C[C@@H](OC(=O)CS[C@@H]2CC[C@@H](N)C[C@H]2O)[C@]2(C)[C@H](C)CC[C@]3(CCC(=O)[C@H]32)[C@@H](C)[C@@H]1O [Compound 6, lefamulin]
Antibacterial activity against aerobic Gram-positive bacteria [1]: potent antibacterial activity
Antibacterial activity against non-fastidious Gram-negative bacteria [2]: no activity
Antibacterial activity against fastidious Gram-negative bacteria [3]: favorable to moderate activity
